Where two headings read alike, the source gives them in different places.
Legend:
Agrobacterium = type: in vivo
N. benthamiana [1] = type: cell-based; conditions: leaf tissue transiently expressing the effector, t=600 s
N. benthamiana [2] = type: cell-based; conditions: induced with flagellin or INF1
[3] = tested on: SIPK (a MAP Kinase from N. benthamiana); type: cell-based; conditions: induced with PtabF
N. benthamiana [4] = type: in vivo
tomato = experiment: Nonhost HR assay in tomato; type: in vivo
Protocol: For elicitation of the HR, purified flagellin or INF1 were infiltrated (at 100 μg/ml) in the first fully expanded leaf of three to four week-old plants. A. tumefaciens mediated transient expression was performed as described previously. The tissue was usually used for further experimentation 2 dpi.

Arabidopsis [5] = experiment: Oxidative burst in Arabidopsis expressing AvrPto / AvrPtoB; type: cell-based; conditions: Arabidopsis expressing the effector
Source text: FIG. 13. […] Western Blot confirms the expression of the protein. […] The excel graph is a quantitative readout of the same experiment.

N. benthamiana [6] = experiment: Measurement of calcium influx (aequorin) in N. benthamiana; conditions: N. benthamiana expressing the effector
Protocol: An intracellular increase of calcium was measured by Agrobacterium-mediated transient expression of 35S:aequorin [3]. Leaf discs (2*0.38 cm^2/well) were floated on H2O containing 2.5 μM coelentherazine overnight in the dark and at room temperature, and luminescence was measured after elicitation withl0 μg/ml PtabF using the Photek camera system.

Agrobacterium (C58C1) = experiment: Bacterial growth curves of A. tumefaciens C58C1 in N. benthamiana
Arabidopsis [7] = experiment: Flagellin HR in Arabidopsis; type: in vivo
rice = experiment: Flagellin HR in rice; type: in vivo
Arabidopsis cells = experiment: Extracellular (medium) alkalinization in cultured cells; type: cell-based; conditions: 100 nM peptide, saturating dose
receptor sites for EF-Tu = molecular target: T1, receptor sites for EF-Tu (Arabidopsis thaliana, UniProt C0LGT6); experiment: Number of receptor sites for EF-Tu (elf-^125I binding) after pretreatment with flg22
T1 construct: from tissue; host or cells: crude extracts of Arabidopsis seedlings
T1 sequence (C0LGT6 25-1031): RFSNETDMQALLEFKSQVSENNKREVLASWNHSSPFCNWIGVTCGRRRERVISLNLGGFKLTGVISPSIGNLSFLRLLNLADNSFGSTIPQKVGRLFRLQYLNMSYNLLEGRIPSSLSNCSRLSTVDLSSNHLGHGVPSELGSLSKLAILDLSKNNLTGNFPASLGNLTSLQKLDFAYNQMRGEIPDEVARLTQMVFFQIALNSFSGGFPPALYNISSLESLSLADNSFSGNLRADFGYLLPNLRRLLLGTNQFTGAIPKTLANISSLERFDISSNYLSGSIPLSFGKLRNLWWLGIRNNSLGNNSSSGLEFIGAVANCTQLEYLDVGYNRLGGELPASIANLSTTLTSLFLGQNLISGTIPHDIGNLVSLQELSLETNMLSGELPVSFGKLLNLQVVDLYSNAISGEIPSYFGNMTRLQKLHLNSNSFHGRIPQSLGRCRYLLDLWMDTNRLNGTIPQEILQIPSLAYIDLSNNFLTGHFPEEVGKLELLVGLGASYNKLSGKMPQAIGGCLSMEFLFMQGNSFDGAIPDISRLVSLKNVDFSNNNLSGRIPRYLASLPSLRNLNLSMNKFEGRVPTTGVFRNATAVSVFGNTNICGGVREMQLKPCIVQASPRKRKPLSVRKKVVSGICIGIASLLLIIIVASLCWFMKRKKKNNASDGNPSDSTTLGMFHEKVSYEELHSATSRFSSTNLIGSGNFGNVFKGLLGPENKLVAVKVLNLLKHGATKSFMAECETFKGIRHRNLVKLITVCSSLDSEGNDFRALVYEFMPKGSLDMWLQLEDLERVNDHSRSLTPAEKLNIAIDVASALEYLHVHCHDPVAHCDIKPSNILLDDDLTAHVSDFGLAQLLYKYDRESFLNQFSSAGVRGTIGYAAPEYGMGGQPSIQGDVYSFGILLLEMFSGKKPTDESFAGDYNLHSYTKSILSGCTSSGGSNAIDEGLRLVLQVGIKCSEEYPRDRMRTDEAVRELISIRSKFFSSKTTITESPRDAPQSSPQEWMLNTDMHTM

Arabidopsis seedlings = experiment: Seedling growth inhibition assay; type: in vivo; conditions: line SALK—044334 (efr-1), 1 μM
Protocol: Fresh weight of seedlings was determined 7 days later. Values represent average and standard variation of n=6.
Pictures were taken after one week of treatment.
(§1) EF-Tu perception shares many features with perception of flagellin. Both PAMPs are peptides which activate their receptors in a two step process according to the concept of address-message (Bauer et al., 2001; Kunze et al., 2004). […] Thus, we speculated that perception of EF-Tu might involve a RLK gene related to FLS2 and that belongs to the group of RLKs induced after stimulation with both PAMPs. Starting with close relatives of FLS2 we established a collection of homozygous T-DNA-tagged mutants for induced LRR-RLKs from lines provided by the Salk collection (Alonso et al., 2003). These mutant lines were then tested for response to EF-Tu using the seedling growth inhibition assay that has been successfully employed previously to screen for flg22-insensitive mutants (Gómez-Gómez and Boller, 2000). […] Apart from lack of responses to EF-Tu-derived elicitors, this line was indistinguishable from wild-type plants and no other phenotype became apparent over several generations.

Arabidopsis leaf tissues = experiment: Oxidative burst in leaf tissues (luminol based assay); type: cell-based; conditions: line SALK—044334 (efr-1) leaf tissue, 1 μM
Source text: (B) Oxidative burst in leaf tissues of wild-type Col-0, efr-1 and fls2 plants. […] Results are averages±standard errors (n=8).
as §1

A. tumefaciens = experiment: Agrobacterium-mediated transient GUS expression in Arabidopsis leaves with co-injected peptides; conditions: co-injection of 1 μM peptide with A. tumefaciens, 4 dpi
Protocol: (B) Quantitative GUS assays with extracts from leaves of wild type and efr-1 mutants 4 days after infiltration with 2*10^8 A. tumefaciens carrying pBIN19-35S::GUS. […] Bars and error bars represent mean and standard error of n=6 independent extractions from two leaves each.
Agrobacterium-mediated expression in Arabidopsis was performed as described previously (Joh et al., 2005). Briefly, Agrobacterium GV3101 strain carrying the GUS-intron transgene in pBIN19g was grown overnight in L medium at 28° C. This culture was diluted 10-fold in fresh L medium and incubated for further 5 h. Bacteria were then collected by centrifugation, resuspended in water at an OD600 of 0.4, and injected into leaves of 4-5 week-old Arabidopsis plants.
To test if EF-Tu perception plays a role in restricting A. tumefaciens infection, wild-type (Col-0) and efr-1 leaves were injected with the hyper-virulent non-tumorigenic strain of A. tumefaciens (GV3101) harbouring a binary plasmid containing a β-glucuronidase (GUS)-intron construct that allows expression in plants but not in bacteria.

O=CC[C@@H](O)[C@H](O)[C@H](O)CO [2-DDG, 2-deoxy-D-Glucose]
level of GUS expression (Agrobacterium; 250 μM, sprayed one day prior to Agrobacterium infiltration): seemed to improved the level of GUS expression | level of GUS expression (Agrobacterium; spray pre-treatment combined with co-infiltration, xanthan gum 150 μg/ml, 2-DDG 250 μM (FIG. 17)): significantly enhanced

AvrPtoB: P. syringae type-III effector protein expressed in the plant tissue, unrelated to AvrPto
effect on PtabF-induced ROS (N. benthamiana [1]): Suppression of PtabF-induced ROS | effect on callose deposition (N. benthamiana [2]): Suppression | effect on MAPK activation [3]: Suppression | effect on nonhost HR induced by flagellin (N. benthamiana [4]): suppress this nonhost HR | effect on nonhost HR induced by flagellin (tomato; tomato): suppress this nonhost HR | effect on oxidative burst (Arabidopsis [5]): exact same result | effect on calcium burst (N. benthamiana [6]): suppress calcium burst | growth of Agrobacterium (C58C1) (Agrobacterium (C58C1)): enhance the growth of Agrobacterium

Flagellin
nonhost HR (N. benthamiana [4]; flagellin from Pseudomonas syringae): induces a nonhost HR | nonhost HR (tomato; tomato (76R), flagellin from Pseudomonas syringae): induces a nonhost HR | HR (Arabidopsis [7]): No flagellin HR | HR (rice): induce the HR

flg22: the flagellin peptide recognized by most plants (QRLTTGYRINSAKDDAAGLQIS)
time lag of alkalinization (Arabidopsis cells): only few seconds | increase in specific receptor sites for the other PAMP (EF-Tu) (receptor sites for EF-Tu; cultured cells, data not shown): > 2 fold | number of specific binding sites for EF-Tu relative to controls (receptor sites for EF-Tu; seedlings, 1 μM flg22, within 4 to 6 h of treatment): > 2 fold | seedling growth (Arabidopsis seedlings): as sensitive to treatment with flg22 as wild-type seedlings | oxidative burst (Arabidopsis leaf tissues): full response | transformation (GUS activity) (A. tumefaciens; efr-1 leaves): strongly reduced transformation | GUS expression (A. tumefaciens; wild type leaves): nearly abolished GUS expression

— patent US8232452B2, “Methods, means and compositions for enhancing agrobacterium-mediated plant cell transformation efficiency” (priority 2005, dated 2012)
